Measured values: patent publication US20170119640A1, “Methods of Improving Glucose Tolerance, Hair Regrowth, and Bio-Availability” (priority 2015, published 2017)

Tests used:
[1] = test system: female Albino Wistar rats; test: hair regrowth assay; format: in vivo, rat; settings: six month old female Albino Wistar rats; 25, 50, 75 mg/kg body wt daily for four months; dorsal hair plucked from 1.5 cm×1.5 cm, scored two weeks later from digital photographs
Protocol: (§1) To determine the efficacy of resveratrol-arginine conjugate, six month old female Albino Wistar rats were divided into seven groups (six rats per group) and given the following daily treatment for four months:
(§2) Group 2: 25 mg ResArgin/kg body wt; Group 3: 50 mg ResArgin/kg body wt; Group 4: 75 mg ResArgin/kg body wt; Group 5: 25 mg Resveratrol/kg body wt; Group 6: 50 mg Resveratrol/kg body wt;
In another embodiment, hair regrowth assay was done and quantified. Compared to the Control group, hair regrowth was improved in the ResArgin and resveratrol groups over the experimental period.
In the hair regrowth assay, dorsal hair was removed by plucking from a square of approximately 1.5 cm×1.5 cm. Hair growth and re-growth was scored two weeks later on the basis of digital photographs.

[2] = test system: female Albino Wistar rats; test: glucose tolerance test; format: in vivo, rat; settings: six month old female Albino Wistar rats; 25, 50, 75 mg/kg body wt daily for four months; 6 h fast, 2 g/kg intraperitoneally, blood at 0-120 min; p<0.01 ResArgin, p<0.05 resveratrol
Protocol: as §1, §2
Group 7: 75 mg Resveratrol/kg body wt. In one embodiment, glucose tolerance levels were tested via a glucose tolerance test and analysis was performed. Compared to the Control group, glucose tolerance was improved in the ResArgin and resveratrol groups (p<0.01 and p<0.05 respectively) over the experimental period.
In one embodiment, glucose tolerance tests were performed after having the rats fast for 6 hours and injecting 2 g/kg body weight intraperitoneally. Blood was then collected from the tail vein at 0, 15, 30, 60 and 120 minutes after injection.

Oc1ccc(C=Cc2cc(O)cc(O)c2)cc1 [resveratrol]
hair regrowth compared to the Control group [1]: improved | glucose tolerance compared to the Control group [2]: improved
